Source: ChEMBL document CHEMBL4414675, “Cytotoxic 20,22-Dihydrodigitoxigenin Glycosides and Other Constituents of Vallaris glabra Stems” (J Nat Prod, 2019)

Tests used:
A549 = test: Cytotoxicity against human A549 cells assessed as reduction in cell viability by MTT assay; assay type: functional, cell-based
HT-29 = test: Cytotoxicity against human HT-29 cells assessed as reduction in cell viability by MTT assay; assay type: functional, cell-based
KB = test: Cytotoxicity against human KB cells assessed as reduction in cell viability by MTT assay; assay type: functional, cell-based
HeLa = test: Cytotoxicity against human HeLa cells assessed as reduction in cell viability by MTT assay; assay type: functional, cell-based
Vero = test: Cytotoxicity against African green monkey Vero cells assessed as reduction in cell viability by MTT assay; assay type: cell-based; conditions: Chlorocebus sabaeus

C[C@H]1[C@H](C)CC[C@]2(C(=O)O)CC[C@]3(COC(=O)/C=C/c4ccc(O)cc4)C(=CC[C@@H]4[C@@]5(C)CC[C@H](O)C(C)(C)[C@@H]5CC[C@]43C)[C@H]12
IC50 (A549): 2.2 µM

CO[C@H]1[C@@H](O)[C@H](O[C@H]2CC[C@@]3(C)[C@H](CC[C@@H]4[C@@H]3CC[C@]3(C)[C@@H](C5=CC(=O)OC5)[C@@H](O)C[C@]43O)C2)O[C@@H](C)[C@@H]1O[C@@H]1O[C@H](CO[C@@H]2O[C@H](CO)[C@@H](O)[C@H](O)[C@H]2O)[C@@H](O)[C@H](O)[C@H]1O
IC50 (HT-29): > 10 µM | IC50 (KB): > 10 µM | IC50 (HeLa): > 10 µM | IC50 (Vero): > 10 µM

CO[C@H]1[C@@H](O)[C@H](O[C@H]2CC[C@@]3(C)[C@H](CC[C@@H]4[C@@H]3CC[C@]3(C)[C@@H]([C@H]5COC(=O)C5)CC[C@]43O)C2)O[C@@H](C)[C@@H]1O[C@@H]1O[C@H](CO[C@@H]2O[C@H](CO)[C@@H](O)[C@H](O)[C@H]2O)[C@@H](O)[C@H](O)[C@H]1O
IC50 (HT-29): > 10 µM | IC50 (KB): > 10 µM | IC50 (HeLa): > 10 µM | IC50 (Vero): > 10 µM

CO[C@@H]1[C@@H](O[C@@H]2O[C@H](CO[C@@H]3O[C@H](CO)[C@@H](O)[C@H](O)[C@H]3O)[C@@H](O)[C@H](O)[C@H]2O)[C@H](C)O[C@@H](O[C@H]2CC[C@@]3(C)[C@H](CC[C@@H]4[C@@H]3CC[C@]3(C)[C@@H]([C@H]5COC(=O)C5)CC[C@]43O)C2)[C@@H]1OC(C)=O
IC50 (HT-29): > 10 µM | IC50 (KB): > 10 µM | IC50 (HeLa): > 10 µM | IC50 (Vero): > 10 µM

CO[C@H]1[C@@H](O)[C@H](C)O[C@@H](O[C@H]2CC[C@@]3(C)[C@H](CC[C@@H]4[C@@H]3CC[C@]3(C)[C@@H](C5=CC(=O)OC5)[C@@H](O)C[C@]43O)C2)[C@@H]1O
IC50 (HT-29): 0.3 µM | IC50 (KB): 0.5 µM | IC50 (HeLa): 6.2 µM | IC50 (Vero): 0.02 µM

CO[C@H]1[C@@H](O)[C@H](O[C@H]2CC[C@@]3(C)[C@H](CC[C@@H]4[C@@H]3CC[C@]3(C)[C@@H]([C@H]5COC(=O)C5)CC[C@]43O)C2)O[C@@H](C)[C@@H]1O[C@@H]1O[C@H](CO)[C@@H](O)[C@H](O)[C@H]1O
IC50 (HT-29): > 10 µM | IC50 (KB): 6.6 µM | IC50 (HeLa): 6.2 µM | IC50 (Vero): > 10 µM

CO[C@@H]1[C@@H](O)[C@H](C)O[C@@H](O[C@H]2CC[C@@]3(C)[C@H](CC[C@@H]4[C@@H]3CC[C@]3(C)[C@@H](C5=CC(=O)OC5)[C@@H](O)C[C@]43O)C2)[C@@H]1O
IC50 (HT-29): 0.2 µM | IC50 (KB): 1.7 µM | IC50 (HeLa): 0.08 µM | IC50 (Vero): 1.3 µM

CO[C@H]1[C@@H](O)[C@H](C)O[C@@H](O[C@H]2CC[C@@]3(C)[C@H](CC[C@@H]4[C@@H]3CC[C@]3(C)[C@@H]([C@H]5COC(=O)C5)CC[C@]43O)C2)[C@@H]1O
IC50 (HT-29): 4.1 µM | IC50 (KB): 1.9 µM | IC50 (HeLa): 9.3 µM | IC50 (Vero): 9.2 µM

CO[C@@H]1[C@@H](O)[C@H](O[C@H]2CC[C@@]3(C)[C@H](CC[C@@H]4[C@@H]3CC[C@]3(C)[C@@H]([C@H]5COC(=O)C5)CC[C@]43O)C2)O[C@@H](C)[C@@H]1O[C@@H]1O[C@H](CO)[C@@H](O)[C@H](O)[C@H]1O
IC50 (HT-29): 7.1 µM | IC50 (KB): 1.7 µM | IC50 (HeLa): 1.1 µM | IC50 (Vero): 0.5 µM

C[C@H]1[C@H](C)CC[C@]2(C(=O)O)CC[C@]3(COC(=O)/C=C\c4ccc(O)cc4)C(=CC[C@@H]4[C@@]5(C)CC[C@H](O)C(C)(C)[C@@H]5CC[C@]43C)[C@H]12
IC50 (HeLa): 6.1 µM

CO[C@@H]1[C@@H](O)[C@H](O[C@H]2CC[C@@]3(C)[C@H](CC[C@@H]4[C@@H]3CC[C@]3(C)[C@@H](C5=CC(=O)OC5)[C@@H](O)C[C@]43O)C2)O[C@@H](C)[C@@H]1O[C@@H]1O[C@H](CO[C@@H]2O[C@H](CO)[C@@H](O)[C@H](O)[C@H]2O)[C@@H](O)[C@H](O)[C@H]1O
IC50 (HT-29): > 10 µM | IC50 (KB): > 10 µM | IC50 (HeLa): > 10 µM | IC50 (Vero): > 10 µM

CC1(C)CC[C@]2(C(=O)O)CC[C@]3(COC(=O)/C=C\c4ccc(O)cc4)C(=CC[C@@H]4[C@@]5(C)CC[C@H](O)C(C)(C)[C@@H]5CC[C@]43C)[C@@H]2C1
IC50 (HT-29): 0.6 µM

CO[C@@H]1[C@@H](O)[C@H](C)O[C@@H](O[C@H]2CC[C@@]3(C)[C@H](CC[C@@H]4[C@@H]3CC[C@]3(C)[C@@H]([C@H]5COC(=O)C5)CC[C@]43O)C2)[C@@H]1O
IC50 (HT-29): 0.2 µM | IC50 (KB): 0.03 µM | IC50 (HeLa): 0.5 µM | IC50 (Vero): 0.6 µM

COc1cccc2c1C(=O)c1c(O)c3c(c(O)c1C2=O)C[C@@](O)(C(=O)CO)C[C@@H]3O[C@H]1C[C@H](N)[C@H](O)[C@H](C)O1 [DOXORUBICIN]
IC50 (HT-29): 0.9 µM | IC50 (KB): 0.2 µM | IC50 (HeLa): 0.14 µM | IC50 (Vero): 1.3 µM
